We go through four compounds from US6664106B1, “Production of primmorphs from disassociated cells of sponges and corals” (priority 1998, dated 2003).

Holding throughout (assay type): cell-based, Suberites domuncula
For data set [1], the system named is primmorphs from S. domuncula. The experiment in a line: Proliferation of cells in primmorphs (parallel batches, BrdU-positive binuclear stages). To be noted: 0.01 to 1 μg PMA/ml. As for the experimental part:
In order to determine whether the cells do in fact divide after the DNA synthesis, the same batches were analysed which were also used to detect the incorporation of BrdU into cells from the primmorphs of S. domuncula. Those cells which were positive for BrdU and which were still in the binuclear stage after undergoing mitosis were counted.
In line with the above comments, it was also examined in parallel batches whether any change in proliferation occurred after incubation with the agent used here.

For data set [2], the system named is primmorphs from S. domuncula. Description: DNA synthesis in primmorphs by BrdU labelling. To be noted: for percentage share of BrdU-positive cells (change in words): after addition as nutrient. As for the experimental part: In order to determine the cell proliferation, the integration of BrdU [5-bromo-2′-deoxy-uridine] into the cellular DNA was measured using the “BrdU-iabeling and detection kit”, in accordance with the manufacturer's instructions.
For this purpose, the primmorphs are incubated, usually in 1 ml of the seawater/antibiotic solution, which also contains the BrdU labelling solution [final dilution: usually 1:1,000 (10 μM of BrdU)]. The incubation period is usually 12 hours; the incubation itself is carried out in culture chambers [e.g. the “culture chamber slides (Nunc)”—catalogue number 177453]. Subsequently, the cells are dissociated in CFMSW-E, washed three times in CFMSW-E and fixed/denatured in 70% ethanol [pH 2.0]. After that, the cells are incubated with anti-BrdU mouse monoclonal antibodies and the immune complex is made visible with anti-mouse Ig coupled to alkaline phosphatase and with the dye substrate nitro-blue tetrazolium salt. The cells are analysed under a light-optical microscope.
The primary primmorphs were obtained from individual cells from S. domuncula and used for the experiments after 21 days.
For this reason, the influence of a phorbol ester, phorbol 12-inyristate 13-acetate (PMA), on the percentage of BrdU-positive cells in primmorphs from S. domuncula was determined. The primmorphs were incubated for two days with different concentrations of PMA. After that, the DNA synthesis was determined by means of BrdU labelling as described above. The control, percentage of BrdU-positive cells in primmorphs without the test substance, was set at 100%.
FIG. 5. Influence of the phorbol ester phorbol 12-myristate 13-acetate (PMA) on the percentage share of BrdU-positive cells in primmorphs from S. domuncula. The primmorphs were incubated for two days with different concentrations of PMA. After this, DNA synthesis was determined by means of BrdU labelling. The control, percentage share of BrdU-positive cells among primmorphs without the test substance, was set at 100%. 300 cells were counted per batch.
FIG. 6. Influence of cadmium, concentrations between 0.1 ng/ml and 100 ng/ml were chosen, on the amount of the percentage share of BrdU-positive cells among primmorphs.
A general note: Incorporation of labelled thymidine or its analogues reports DNA synthesis.

Data set [3] deals with primmorphs from S. domuncula. Description: Size (diameter) of primmorphs after addition of nutrients. To be noted: after addition as nutrient.

For `CCCCCCCCCCCCCC(=O)O[C@@H]1[C@@H](C)[C@@]2(O)[C@@H](C=C(CO)C[C@]3(O)C(=O)C(C)=C[C@@H]23)[C@@H]2C(C)(C)[C@]12OC(C)=O` [PMA, phorbol 12-myristate 13-acetate], the “proliferation of cells in primmorphs” value in data set [1] is recorded as “increase”. Also, the “percentage of BrdU-positive cells in primmorphs” value in data set [2] (0.01 to 1 μg PMA/ml, incubated for two days, control without test substance set at 100%) is “distinct percentage increase”. For `[Cd]` [cadmium], the “percentage of BrdU-positive cells in primmorphs” value in data set [2] (cadmium at a concentration of 1 ng/ml and more, single exposure) was “decline”. Turning to phosphatidyl serine, the “size of the primmorphs (change in words)” value in data set [3] is given as “increase”. In data set [2], the “percentage share of BrdU-positive cells (change in words)” value is “rise”. Take phosphatidylinositol: the “size of the primmorphs (change in words)” value in data set [3] is reported as “increase”. For the same compound, in data set [2], the “percentage share of BrdU-positive cells (change in words)” value was “rise”.
